# According to US20110269166A1, “SEALING SURFACE SAMPLING PROBE APPLIED TO BLOOD SPOTS AND TISSUES” (UT-BATTELLE, LLC, priority 2010, published 2011):
# Test: SSSP-MS/MS spot sampling of whole-body thin tissue sections of a propranolol dosed mouse
# Assay type: in vivo
# Details: male CD-1 mouse, propranolol 7.5 mg/kg i.v., sacrificed 60 min post-dose, 40 μm section, ESI+
# Experimental: At 60 min post-dose, mice were euthanized with an isoflurane overdose and immediately frozen in dry ice/hexane. The frozen mice were embedded/blocked in 2% aqueous carboxymethyl cellulose. Sagittal whole-body cryosections (40 μm thick) were prepared using a Leica CM3600 cryomacrotome and collected onto adhesive tape (8″×3″, 810 Scotch® Brand Magic™ Tape, 3M) then freeze-dried within the chamber of the cryomacrotome. Prior to analysis using the SSSP, tissue sections were stored in a desiccator at room temperature. Color images of the tissue sections were acquired using a HP Scanjet 4370 flat-bed scanner (Hewlett-Packard, Palo Alto, Calif., USA).
# The inlet and outlet of the SSSP (“TLC-MS interface”, CAMAG, Muttenz, Switzerland) were coupled to an ACQUITY UltraPerformance Liquid Chromatography (UPLC) system (Waters Corporation, Manchester, UK) and to a 4000 QTRAP® mass spectrometer (MDS SCIEX, Concord, Ontario, Canada), respectively (see FIG. S1 in the Supplemental section). The gas pressure applied via a piston to the plunger of the SSSP interface was about 5 bar. The flow rate of the extraction solvent was 200 μL/min in all cases. For positive ion mode ESI, the emitter voltage was 5 kV and the turbo sprayer heater temperature was 300° C. For positive ion mode APCI, heated nebulizer probe temperature and needle current were 350° C. and 5 μA, respectively.
# The extraction solvent flow paths and the individual steps of the surface sampling process with the SSSP are illustrated in FIGS. 3A-3E and 4A-4E. The solvent inlet capillary to the SSSP was connected to the UPLC pump, while the outlet capillary was connected to the ion source (ESI or APCI) of the mass spectrometer. At the beginning of a surface sampling experiment, a sample was positioned under the SSSP plunger while the extraction solvent flowed from the UPLC through a loop into the ion source (as in FIGS. 3A and 4A). Next, the SSSP stainless steel plunger, with 4-mm-diameter disk shape cutting edge, was lowered to seal the sampling area by cutting into and compressing the sample substrate (paper or adhesive tape in this case) (as in FIGS. 3B and 4B). By switching the valve from standby to extraction mode, the solvent previously being pumped directly to the ion source was diverted to the surface, where it extracted the analyte, and any other soluble components, and carried them into the ion source (FIGS. 3C and 4C). After a suitable extraction time (typically 60 seconds), the valve was switched back to direct the extraction solvent from the UPLC through the loop into the ion source (FIGS. 3D and 4D). […] In the final step of the surface sampling process, the plunger was raised up from the surface (FIGS. 3E and 4E) and then a cleaning station was positioned under the probe. Here, using push button control, the sampling face of the plunger was cleaned of accumulated particulate material using a stream of pressurized nitrogen. In the case of the tissue sections on tape, the probe actually cut out a section from the sample which stayed with the probe until removed by this gas jet cleaning. […] This washed the SSSP plunger face and tubing from the plunger to the valve and on into the ion source. Given 15 or 30 s to position the probe for analysis of a DBS or tissue sample spot, respectively, a 60 second extraction time and 60 s wash time to eliminate carryover, spot-to-spot analysis time was either […].
# The tissue section was collected onto an adhesive tape substrate, which is a common format to collect whole-body tissue sections for WBA analyses.
Compound,SRM signal in brain (spot 2),SRM signal in heart (spot 5),SRM signal in kidney (spot 3),SRM signal in liver (spot 1),SRM signal in lung (spot 6)
"CC(C)NCC(O)COc1cccc2ccccc12 (stereo not drawn) [propranolol, reference compound]",High,,,,
hydroxypropranolol glucuronide,not detected,Much lower,highest,highest,Much lower
